Key:
NIH3T3 cells [1] = experiment: TPA-induced transformation of NIH3T3 cells, colony formation in soft agar; assay type: cell-based, mouse; conditions: 10 μM TPA + AICAR (40 μM)
Procedure: (A) TPA (10 μM) was incubated with NIH3T3 cells in 0.39% soft agar in the presence of DMSO, 1 nM rapamycin, or 250 nM AICAR, and cultured for 7 days prior to counting colonies under a microscope. (B) The data represents the average of four experiments.
The experiment was done as in Example 19. In brief, 1500 NIH3T3 cells were mixed with 50 μL, of 0.4% agarose in culture medium (basal medium with 10% bovine fetal serum), layered on 96-well plates pre-covered with 50 μL of 0.8% agarose in culture medium. 100 μL of culture medium containing drugs to make final DMSO, 10 μM TPA, 40 μM AICAR, or 10 μM TPA+[…] was then added into the wells. The cells were incubated in a 37° C. incubator with 5% CO2 for more than 7 days. 50 μL of fresh medium was added every 5 days. Colonies were then counted under a microscope.
Transformation of NIH 3T3 cells is a good in vitro tumorigenesis assay, which measures colony formation in soft agar (termed as anchorage-independent growth). The […] TPA (12-O-Tetradecanoylphorbol 13-acetate) is known to stimulate protein kinase C (PKC), activate oncogenes and transform mouse embryonic fibroblast NIH3T3 cells. The TPA-induced anchorage-independent growth of NIH3T3 cell was employed as a tumorigenesis assay. […] Colonies were then counted under a microscope. […]

[2] = system: senescent WI-38 cells (human primary fibroblast); experiment: loss of senescent WI-38 cells, β-galactosidase (X-gal) staining; assay type: cell-based; conditions: 56 days in senescence; 50 pM rapamycin, 250 μM AICAR, 20 μg/mL EGCG, 1.6 μg/mL GSE, 20 μg/mL bilberry extract, 1 μM AITC, 12.5 μM 2-deoxyglucose; 3-day-on/7-day-off (AICAR 2-day-on/8-day-off)
Procedure: AICAR and reduced glucose treatment were incubated with cells in a 2-day-on/8-day-off cycle, while the rest of agents were in a 3-day-on/7-day-off cycle. The treatment started at passage 29. The medium was refreshed every 3 days. After 56-days from passage 31 (senescence), the cells were briefly fixed in 2% formaldehyde/0.2% glutaraldehyde and stained with 1 mg/mL 5-bromo-4-chloro-3-indolyl β-D-galactoside (X-gal) (in buffer containing 40 mM citric acid/sodium phosphate, pH 6.0, 5 mM potassium ferrocyanide, 5 mM potassium ferricyanide, 150 mM NaCl, and 2 mM MgCl2) at 37° C. for 18 hrs for the senescence marker, cellular β-galactosidase activity (blue in color picture and dark grey in black/white picture). Surviving senescent cells were viewed under a microscope.
This invention discloses that CR or rapamycin also prolongs senescence and prevents cell death induced by telomere dysfunction in human cells. Primary human embryonic lung fibroblasts WI-38 were used. […] Cells at passage 29 were treated with 50 pM rapamycin. The treatment was on a 10-day cycle of 3-day with and 7-day without rapamycin (also termed as 3-day-on/7-day-off cycle). […] Due to increased cytosol β-galactosidase activity, senescent cells are stained a blue color (shown as dark grey in black/white picture). […] Rapamycin didn't transform cells since the senescence marker was still present and cell growth was not observed.

human lymphoblastoid L40 = experiment: mitochondrial mass in human lymphoblastoid L40, MitoTracker Green FM and FACS; assay type: cell-based; conditions: 2-day treatment; 10 μM LY294002, 2 μM DATS, 1 μM BITC, 1 μM PITC, 2 μg/mL resveratrol, 0.03 μM lycopene, 6.7 μM PEITC, 5 mM silibinin, 1.25 mM selenite, 2.5 mM genistein, 250 μg/mL GSE, 50 μg/mL EGCG, 3 mg/mL bilberry extract, 1 μM AITC, 50 pM rapamycin, 250 μM AICAR
Text: Mitochondrial mass was monitored by staining the 60% Ethanol-fixed cells with MitoTracker Green FM prior to FACS analysis.

NIH3T3 cells [3] = experiment: mitochondrial mass in NIH3T3 cells treated with TPA; assay type: cell-based, mouse; conditions: 10 μM TPA+40 μM AICAR, two days
Procedure: NIH3T3 cells were incubated in DMEM medium (DMEM with 10% FCS, 100 units/mL penicillin, 100 μg/mL streptomycin and 2 mM glutamine) in the presence of control DMSO, 10 μM TPA, 1 nM rapamycin, 10 μM TPA+1 nM rapamycin, 40 μM AICAR, or 10 μM TPA+40 μM AICAR at 37° C. in a humidified atmosphere consisting of 95% air and 5% CO2 for two days. Cells were then harvested by trypsin and fixed by 60% ethanol. The cells were stained with MitoTracker Greeen FM in darkness for 30 min prior to FACS analysis. The data represents the average of a triplica-experiment.

WI-38 cells = experiment: MPP+ induced ROS in WI-38 cells, dehydrorhodamine 123 and FACS; assay type: cell-based, human; conditions: 200 μM MPP^+, 3 days
Procedure: MPP+ with various concentrations of rapamycin was incubated with WI-38 cells for 3 days. Cells were stained with dehydrorhodamine 123 in the dark for 30 min prior to FACS analysis.
MPP^+, an inhibitor of complex I (NADH CoQ1 reductase) in the mitochondrial respiratory chain, is a dopaminergic neurotoxin. It is commonly used to induce Parkinson's disease in […]. Human primary fibroblast WI-38 cells were treated with 200 μM MPP^+ for 3 days. Cells were then stained with dehydrorhodamine 123 in the dark for 30 min. Cells were then analyzed by FACS.

Row | SMILES | anchorage-independent growth of NIH3T3 cells induced by TPA (NIH3T3 cells [1]) | loss of the senescent WI-38 cells [2] | mitochondrial mass (human lymphoblastoid L40) | mitochondrial mass decrease induced by TPA (NIH3T3 cells [3]) | ROS level in WI-38 cells (WI-38 cells)
1 | NC(=O)c1ncn([C@@H]2O[C@H](CO)[C@@H](O)[C@H]2O)c1N [AICAR, 5-aminoimidazole-4-carboxamide-1-beta-D-ribofuranoside, reference compound] | inhibits the anchorage-independent growth | prevented | increased | reverses the decrease in mitochondrial mass | 
2 | C[n+]1ccc(-c2ccccc2)cc1 [MPP^+] |  |  |  |  | greatly increased ROS level
